Reference: publication PMC5760651, “Peptidomimetic blockade of MYB in acute myeloid leukemia” (Nature Communications, 2018)
Non-standard residues stand in square brackets, D forms with d. Residues, ends and D or L forms follow the SMILES beside them.

Key:
CBP KIX domain = target: T1, CBP KIX domain (Mus musculus, UniProt P45481); assay: Microscale thermophoresis binding of FITC-conjugated peptides to purified recombinant CBP KIX domain; conditions: 50 mM sodium phosphate, 150 mM NaCl, 0.01% NP-40, pH 5.5, room temperature, ± standard error mean of three biological replicates
T1 construct: Bacterial expression pGEX-KIX vector encoding the KIX domain of CBP; GST (N, cleaved yes); made in house; host or cells: E. coli BL21(DE3)
T1 sequence (P45481 586-665 limits assumed): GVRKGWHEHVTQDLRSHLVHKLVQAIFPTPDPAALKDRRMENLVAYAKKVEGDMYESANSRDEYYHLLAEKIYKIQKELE
Procedure: BL21(DE3) cells (Invitrogen) transformed with pGEX-KIX plasmid were induced at 37 °C with isopropyl β-D-1-thiogalactopyranoside for 3 h. Cells were lysed in 50 mM Tris–HCl pH 7.3, 150 mM NaCl, 0.1% Tween-20, 1 mM DTT, 5 mM EDTA, supplemented with protease inhibitors described above and sonicated for ten minutes (15 s on, 15 s off, 40% amplitude) using the Misonix probe sonicator (Qsonica, Newtown, CT). Lysate was cleared by centrifugation for 1 h at 21,800 × g at 4 °C. Cleared lysate was incubated with 4 ml glutathione agarose resin slurry (GoldBio) for 1 h at 4 °C to capture GST-KIX. Resin was washed four times with 50 mM Tris–HCl pH 7.4, 150 mM NaCl. KIX domain was cleaved from GST by incubation of resin-bound GST-KIX with 160 U thrombin (GE Healthcare) overnight at room temperature. Resin was centrifuged at 500 × g for 5 min. […] Cleaved KIX was purified using a linear gradient of 50 mM to 1 M NaCl by cation exchange chromatography using MonoS 5/50 GL column (GE Healthcare). […] Binding of purified recombinant KIX with FITC-conjugated peptides was measured using Monolith NT.115 (NanoTemper Technologies). Assays were conducted in 50 mM sodium phosphate, 150 mM NaCl, 0.01% NP-40, pH 5.5. […] MST measurements were recorded at room temperature for 10 s per capillary using fixed IR-laser power of 80% and LED excitation power of 40–50%.

MOLM-13 cells = assay: RNA-seq transcriptome profiling; format: cell-based, human; conditions: MOLM13 cells, 20 µM, 6 h
Procedure: Reads were quality and adapter trimmed using “trim_galore” before aligning to human assembly hg19 with STAR v2.5 using the default parameters. Coverage and post-alignment quality were assessed using the Picard tool CollectRNASeqMetrics (http://broadinstitute.github.io/picard/). Read count tables were created using HTSeq v0.6.1. Normalization and expression dynamics were evaluated with DESeq2 using the default parameters.

MV-411 cells [1] = assay: MYB ChIP-seq; format: cell-based, human; conditions: 20 µM, 6 h, 3 biological replicates
Procedure: ChIP was performed as previously described. Briefly, cells were fixed in 1% formalin in phosphate-buffered saline (PBS) for 10 minutes at room temperature. Glycine (125 mM final concentration) and Tris-HCl pH 8 (100 mM final concentration) were added to the cells and cells were washed twice in ice-cold PBS and resuspended in sodium dodecyl sulfate (SDS) lysis buffer (1% SDS, 10 mM EDTA, 50 mM Tris–HCl, pH 8.1). Lysates were sonicated using the Covaris S220 adaptive focused sonicator to obtain 100–500 bp chromatin fragments (Covaris, Woburn, CA). Lysates containing sheared chromatin fragments were resuspended in 0.01% SDS, 1.1% Triton-X100, 1.2 mM EDTA, 16.7 mM Tris–HCl, pH 8.1,167 mM NaCl. Lysates and antibody-coupled beads were incubated over night at 4 °C. […] Libraries were sequenced on the Illumina HiSeq 2500 instruments, with 30 million 2 × 50 bp paired reads.
For ChIP-seq analysis, reads were quality and adapter trimmed using ‘trim_galore’ before aligning to human genome assembly hg19 with bwa mem using the default parameters. Aligned reads with the same start position and orientation were collapsed to a single read before subsequent analysis. Density profiles were created by extending each read to the average library fragment size and then computing density using the BEDTools suite. Enriched regions were discovered using MACS 2.0 and scored against matched input libraries. […]

[2] = test system: MOLM-13, MV-411, ML-2 and HL-60 cells; assay: Cell viability of AML cell lines; format: cell-based, human; conditions: 6 days, 20 μM TG1, TG2 or TG3, 10 and 20 μM MYBMIM, peptide replacement every 48 h, compared to untreated control
Procedure: (§1) Cells were resuspended and plated at a concentration of 2 × 10^5 cells in 200 μl in 96-well tissue culture plates. Media with peptides was replaced every 48 h. To assess the number of viable cells, cells were resuspended in PBS and 10 µl of suspension was mixed in a 1:1 ratio with 0.4% Trypan Blue (Thermo Fisher) and counted using a hemacytometer (Hausser Scientific, Horsham, PA, USA). To assess viability using an ATP-based assay, cell viability was assessed using the CellTiter-Glo Luminescent Viability assay, according to the manufacturer’s instructions (Promega). Luminescence was recorded using the Infinite M1000Pro plate reader using integration time of 250 ms (Tecan).

MV-411 and MOLM-13 cells = assay: qRT-PCR of BCL2 mRNA expression; format: cell-based, human; conditions: 20 μM, 6 h
Procedure: RNA was isolated using Trizol reagent according to the manufacturer’s instructions (Life Technologies). Complementary DNA was synthesized using the SuperScript III First-Strand Synthesis system according to the manufacturer’s instructions (Invitrogen). Quantitative real-time PCR was performed using the KAPA SYBR FAST PCR polymerase with 20 ng template and 200 nM primers, according to the manufacturer’s instructions (Kapa Biosystems, Wilmington, MA, USA). PCR primers are listed in Supplementary Table 4. Ct values were calculated using ROX normalization using the ViiA 7 software (Applied Biosystems).

MV-411 cells [3] = assay: Growth and survival of MV-411 cells with ectopic BCL2 (MIG-BCL2) or empty MIG vector; format: cell-based, human; conditions: 20 μM, p = 0.003
Procedure: as §1
The MIG-BCL2 vector was packaged using pUMVc and pCMV-VSVG vectors in HEK 293T cells and the FuGENE 6 transfection reagent, according to manufacturer’s instructions (Promega). Virus supernatant was collected at 48 and 72 h post transfection, pooled, filtered and stored at −80 °C. Cells were transduced with virus particles at a multiplicity of infection of 1 by spin inoculation for 90 min at 3500 rpm at 35 °C in the presence of 8 μg/ml hexadimethrine bromide. Two days after transduction, cells were isolated using fluorescence-activated cell sorting (FACSAria III, BD Bioscience, San Jose, CA, USA).

CC[C@@H](C)[C@@H](NC(=O)[C@@H](CCCCN)NC(=O)[C@@H](CCC(=O)O)NC(=O)[C@@H](CC(C)C)NC(=O)[C@@H](CCC(=O)O)NC(=O)[C@@H](CC(C)C)NC(=O)[C@@H](CC(C)C)NC(=O)CNC(=O)[C@@H](CCSC)NC(=O)[C@@H](CO)NC(=O)[C@H](NC(=O)[C@@H](CCC(=O)O)NC(=O)[C@@H](CC(N)=O)NC(=O)CNC(=O)[C@@H](CC(C)C)NC(=O)[C@@H](CCCCN)NC(C)=O)[C@H](C)O)C(=O)NCC(=O)N[C@H](CCCCN)C(=O)NCC(=O)NCC(=O)N[C@H](CCCNC(=N)N)C(=O)N[C@H](CCCNC(=N)N)C(=O)N[C@H](CCCNC(=N)N)C(=O)N[C@H](CCC(N)=O)C(=O)N[C@H](CCCNC(=N)N)C(=O)N[C@H](CCCNC(=N)N)C(=O)N[C@H](CCCCN)C(=O)N[C@H](CCCCN)C(=O)N[C@H](CCCNC(=N)N)C(=O)NCC(=O)N[C@H](Cc1ccc(O)cc1)C(N)=O [TG3] (Ac-[dK][dL]G[dN][dE][dT][dS][dM]G[dL][dL][dE][dL][dE][dK][dI]G[dK]GG[dR][dR][dR][dQ][dR][dR][dK][dK][dR]G[dY]-NH2)
Kd (CBP KIX domain): 113 ± 36.6 µM | Changes in gene expression as compared to mock-treated cells (MOLM-13 cells): no significant changes in gene expression | MYB complexes bound to promoters and enhancers eliminated (MV-411 cells [1]): inactive | Growth of AML cell lines [2]: inactive | BCL2 expression downregulation (MV-411 and MOLM-13 cells): not | Cell growth and survival of mock-treated and MIG empty vector control transduced MV-411 cells (MV-411 cells [3]): inactive
